According to ChEMBL document CHEMBL3885861, “Open TG-GATES”:

Species: Rattus norvegicus
Assay: Open TG-GATES - Regimen: Single
Assay type: toxicity, organism-based, Sprague-Dawley
Parameters: regimen Single, gender Male, age 6 weeks
Settings: in vivo, po, route gavage; for Bas / Eos / Fbg / Lym / Mono / RBC / Ret / WBC: tissue Blood; for KIDNEY_L / KIDNEY_R / KIDNEY_TOTAL: tissue Kidney; for ALP / CRE / DBIL / IP / K / LDH / Na / PL / RALB / TBIL / TG / TP / gamma-GTP / GLC: tissue Plasma
[1] = 0 mg/kg, 3 h, dose level Control
[2] = 0 mg/kg, 6 h, dose level Control
[3] = 0 mg/kg, 9 h, dose level Control
[4] = 0 mg/kg, 24 h, dose level Control

## C=C[C@H]1C[N@@]2CC[C@H]1C[C@@H]2[C@@H](O)c1ccnc2ccc(OC)cc12 [QUINIDINE]
[1]
  TERMINAL_BW: 212.2 g
  Bas: 0%
  Eos: 0.8%
  Fbg: 313.6 mg/dL
  Lym: 78.2%
  Mono: 1.8%
  RBC: 615 x10_4/ul
  Ret: 7.3%
  WBC: 86.7 x10_2/uL
  KIDNEY_L: 0.9 g
  KIDNEY_R: 1 g
  KIDNEY_TOTAL: 1.9 g
  ALP: 1497.8 IU/L
  CRE: 0.2 mg/dL
  DBIL: 0 mg/dL
  IP: 8.8 mg/dL
  K: 3.9 meq/L
  LDH: 153 IU/L
  Na: 143.8 meq/L
  PL: 136 mg/dL
  RALB: 3 g/dL
  TBIL: 0.018 mg/dL
  TG: 60.6 mg/dL
  TP: 5.4 g/dL
  gamma-GTP: 1.8 IU/L
[2]
  TERMINAL_BW: 213.3 g
  Bas: 0%
  Eos: 0.6%
  Fbg: 318.2 mg/dL
  Lym: 81.4%
  Mono: 2.2%
  RBC: 641 x10_4/ul
  Ret: 7%
  WBC: 100 x10_2/uL
  KIDNEY_L: 1 g
  KIDNEY_R: 1 g
  KIDNEY_TOTAL: 1.9 g
  ALP: 1503.8 IU/L
  CRE: 0.2 mg/dL
  DBIL: 0 mg/dL
  IP: 9.3 mg/dL
  K: 4.2 meq/L
  LDH: 187 IU/L
  Na: 143 meq/L
  PL: 134.8 mg/dL
  RALB: 3.1 g/dL
  TBIL: 0.018 mg/dL
  TG: 73.6 mg/dL
  TP: 5.4 g/dL
  gamma-GTP: 1.2 IU/L
[3]
  TERMINAL_BW: 212.8 g
  Bas: 0%
  Eos: 0.4%
  Fbg: 288.2 mg/dL
  Lym: 79.4%
  Mono: 2%
  RBC: 614.8 x10_4/ul
  Ret: 6.9%
  WBC: 84.8 x10_2/uL
  KIDNEY_L: 1 g
  KIDNEY_R: 1 g
  KIDNEY_TOTAL: 1.9 g
  ALP: 1297.8 IU/L
  CRE: 0.2 mg/dL
  DBIL: 0 mg/dL
  GLC: 174.2 mg/dL
  IP: 9.6 mg/dL
  K: 4.4 meq/L
  LDH: 136.6 IU/L
  Na: 143.8 meq/L
  PL: 131.6 mg/dL
  RALB: 3 g/dL
  TBIL: 0.022 mg/dL
  TG: 66 mg/dL
  TP: 5.5 g/dL
  gamma-GTP: 1.6 IU/L
[4]
  TERMINAL_BW: 227.4 g
  Bas: 0%
  Eos: 0.8%
  Fbg: 298.2 mg/dL
  Lym: 78.6%
  Mono: 1.8%
  RBC: 618.4 x10_4/ul
  Ret: 6.9%
  WBC: 90.9 x10_2/uL
  KIDNEY_L: 1 g
  KIDNEY_R: 1 g
  KIDNEY_TOTAL: 2 g
  ALP: 1610.6 IU/L
  CRE: 0.1 mg/dL
  DBIL: 0 mg/dL
  IP: 7.9 mg/dL
  K: 4.3 meq/L
  LDH: 202.2 IU/L
  Na: 141.6 meq/L
  PL: 149.8 mg/dL
  RALB: 3 g/dL
  TBIL: 0.008 mg/dL
  TP: 5.7 g/dL
  gamma-GTP: 1.6 IU/L
20 mg/kg, 3 h, dose level Low
  TERMINAL_BW: 218.9 g
  Bas: 0%
  Eos: 0.2%
  Fbg: 293.2 mg/dL
  Lym: 81%
  Mono: 2%
  RBC: 600.6 x10_4/ul
  Ret: 7.5%
  WBC: 73.2 x10_2/uL
  KIDNEY_L: 1 g
  KIDNEY_R: 1 g
  KIDNEY_TOTAL: 2 g
  ALP: 1446.4 IU/L
  CRE: 0.2 mg/dL
  DBIL: 0 mg/dL
  GLC: 178.4 mg/dL
  IP: 8.7 mg/dL
  K: 3.7 meq/L
  Na: 142 meq/L
  PL: 145 mg/dL
  RALB: 3 g/dL
  TBIL: 0.022 mg/dL
  TG: 68.2 mg/dL
  TP: 5.4 g/dL
  gamma-GTP: 1.8 IU/L
20 mg/kg, 6 h, dose level Low
  TERMINAL_BW: 214.6 g
  Bas: 0%
  Eos: 0.8%
  Fbg: 294.2 mg/dL
  Lym: 78%
  Mono: 2.6%
  RBC: 617.4 x10_4/ul
  Ret: 7.3%
  WBC: 80 x10_2/uL
  KIDNEY_L: 0.9 g
  KIDNEY_R: 1 g
  KIDNEY_TOTAL: 1.9 g
  ALP: 1616.2 IU/L
  CRE: 0.2 mg/dL
  DBIL: 0.004 mg/dL
  IP: 9.4 mg/dL
  K: 4 meq/L
  Na: 142.8 meq/L
  PL: 140.6 mg/dL
  RALB: 3 g/dL
  TBIL: 0.034 mg/dL
  TG: 55.6 mg/dL
  TP: 5.4 g/dL
  gamma-GTP: 1.2 IU/L
20 mg/kg, 9 h, dose level Low
  TERMINAL_BW: 213.3 g
  Bas: 0%
  Eos: 0.8%
  Fbg: 302.6 mg/dL
  Lym: 77.2%
  Mono: 2.2%
  RBC: 642 x10_4/ul
  Ret: 6.9%
  WBC: 88 x10_2/uL
  KIDNEY_L: 1 g
  KIDNEY_R: 1 g
  KIDNEY_TOTAL: 2 g
  ALP: 1487 IU/L
  CRE: 0.2 mg/dL
  DBIL: 0 mg/dL
  IP: 9.3 mg/dL
  K: 4.4 meq/L
  LDH: 133.8 IU/L
  Na: 143.8 meq/L
  PL: 136.8 mg/dL
  RALB: 3 g/dL
  TBIL: 0.02 mg/dL
  TG: 83.4 mg/dL
  TP: 5.5 g/dL
  gamma-GTP: 1.6 IU/L
20 mg/kg, 24 h, dose level Low
  TERMINAL_BW: 228.7 g
  Bas: 0%
  Eos: 1%
  Fbg: 321.4 mg/dL
  Lym: 82.4%
  Mono: 2.4%
  RBC: 632.8 x10_4/ul
  Ret: 6.7%
  WBC: 97.6 x10_2/uL
  KIDNEY_L: 1 g
  KIDNEY_R: 1 g
  KIDNEY_TOTAL: 1.9 g
  ALP: 1563 IU/L
  CRE: 0.1 mg/dL
  DBIL: 0.002 mg/dL
  IP: 7.7 mg/dL
  K: 4 meq/L
  Na: 140.4 meq/L
  RALB: 3.1 g/dL
  TBIL: 0 mg/dL
  TG: 147.8 mg/dL
  TP: 5.8 g/dL
  gamma-GTP: 1.8 IU/L
60 mg/kg, 3 h, dose level Middle
  TERMINAL_BW: 222.4 g
